Values quoted from earlier work in EP1214078B1, “FORMULATIONS FOR PARENTERAL USE OF ES[…] AND AMINO ACIDS” (priority 1999, dated 2001).

Conditions: patients, slow intravenous injection or bolus, 300 mg/day

Q: Which “side effects at the peripheral intravenous injection sites” value does the source give for `C[C@]12CC[C@@H]3c4ccc(OC(=O)N(CCCl)CCCl)cc4CC[C@H]3[C@@H]1CC[C@@H]2OP(=O)(O)O` [estramustine phosphate, Estramustine phosphate] here?
A: thrombophlebitis and local irritations
